US6780971B2, “Compositions for inhibiting the aggregation pathway of α-synuclein” (Panacea Pharmaceuticals, Inc., priority 2000, dated 2004)
“Also recorded” adds a separate entry of the source.

Assays:
α-synuclein = target: T1, α-synuclein (Homo sapiens, UniProt P37840); assay: Tyrosine fluorescence assay of metal binding to α-synuclein; details: magnesium co-incubated with iron
T1 construct: His-6 (cleaved yes); made in house; host or cells: bacteria (IPTG-induced; Pro-Ex His 6 vector)
Experimental: Because iron binds to other proteins that form aggregates and iron is known to accumulate in Parkinson's disease, iron might bind directly to α-synuclein. To confirm this hypothesis, the interaction of iron with α-synuclein was tested using tyrosine fluorescence as an indicator of iron binding. […] Fluorescence of tyrosine has been used to monitor binding of metals to β-amyloid [Garzon-Rodriguez W. et al., Bioorg. Med. Chem. Let., 9:2243-2248 (1999), which is hereby incorporated by reference]. A similar approach was taken to analyze binding of iron to α-synuclein. Tyrosine has a fluorescence emission spectrum that has a peak emission of 310 nm when excited at 280 nm, respectively (FIG. 2A). It was observed that binding of iron reduced the fluorescence of the tyrosines in α-synuclein. […] The Hill coefficient was 1.0 (R^2=1.0, P<0.0001), indicating one binding site for iron with no cooperativity (FIGS. 2A & B). α-Synuclein was also tested for binding to other metals, including CuCl2, ZnCl2 and MgCl2. Because the C-terminus of α-synuclein has a region with 7 glutamates and 4 aspartates, which together could chelate iron, we created a deletion construct lacking the last 27 amino acids on α-synuclein and analyzed binding of this construct.
To monitor the binding profiles of Fe(II) and Mg(II) to α-synuclein in vitro we used changes of tyrosine fluorescence. Tyrosine fluorescence is used as an indicator of changes in protein conformation or binding of metals. Excitation of tyrosine at 280 nm elicits fluorescence that peaks at 310 nm for monomeric tyrosine, and at 350-400 nm for tyrosinate or dimeric tyrosine. The fluorescence spectrum of α-synuclein yielded fluorescence peaks at 310 and 400 nm. The peak at 400 nm cannot be explained by the presence of dimeric tyrosine, due to dimerization of α-synuclein, because dimerization of α-synuclein decreases the fluorescence at 400 nm, and tends to eliminate the peak at 400 nm.

A53T α-synuclein [1] = target: T2, A53T α-synuclein (Homo sapiens, UniProt P37840, A53T); assay: Tyrosine fluorescence assay of metal binding to A53T α-synuclein
T2 construct: His-6 (cleaved yes); made in house; host or cells: bacteria (IPTG-induced; Pro-Ex His 6 vector)
Text: We also examined how the A53T mutation in human α-synuclein affected binding of iron and magnesium. […] Previous studies have shown that A53T mutation changes the conformation of α-synuclein by increasing its helical content (Polymeropoulos et al., Science, 276:2045-7(1997)). These conformational changes might also reduce binding of magnesium to α-synuclein.

[2] = target: T3, wildtype recombinant α-synuclein (Homo sapiens, UniProt P37840); assay: Aggregation of recombinant wildtype α-synuclein (immunoblot, video densitometry, thioflavine-S); format: biochemical
T3 construct: His-6 (cleaved yes); made in house; host or cells: bacteria (IPTG-induced; Pro-Ex His 6 vector)
Experimental: Knowing that magnesium and iron induce opposing changes in α-synuclein tyrosine fluorescence, it is believed that binding of magnesium might convert α-synuclein to a conformation that resists aggregation perhaps by preventing β-pleated sheet formation. To test this, wildtype recombinant α-synuclein was incubated with 0-3 mM FeCl2 and 0 or 100 μM MgCl2 for 24 hrs at 37° C., then immunoblotting was performed for α-synuclein and quantified aggregation by video densitometry.

A53T α-synuclein [3] = target: T2, A53T α-synuclein; assay: Iron-induced aggregation of recombinant A53T α-synuclein (immunoblot, video densitometry); format: biochemical; details: 0-3 mM FeCl2, 100 μM MgCl2, 24 hrs
Experimental: We incubated recombinant A53T α-synuclein with 0-3 mM FeCl2 and 0 or 100 μM MgCl2 for 24 hrs, then immunoblotted the α-synuclein and quantified aggregation by video densitometry.

primary cortical neurons [4] = assay: α-Synuclein aggregation in primary cortical neurons (immunoblot, video densitometry); format: cell-based, rat
Experimental: Immunoblotting: Cells were harvested with SDS lysis solution (2% SDS, 10 mM Tris, pH 7.4, 2 mM β-glycerol phosphate, 1 μM AEBSF). The amount of protein was determined using the BCA assay (Pierce), […] per lane was run on 14% SDS polyacrylamide gels and transferred to nitrocellulose (200 mAmp, 12 hrs). The nitrocellulose was then incubated 1 hr in 5% milk/PBS, washed, incubated overnight in 1° antibody, washed, then incubated 3 hrs in peroxidase coupled 2° antibody and developed with chemiluminescent reagent (NEN).
(§1) To test this, the inventors examined the ability of magnesium to inhibit α-synuclein aggregation in primary cortical neurons grown in cell culture. Primary cortical neurons were treated with 1 mM FeCl2 plus 0-1.5 mM MgCl2 for 3 days, the α-synuclein was immunublotted and the amount of aggregate determined by video densitometry. […] Doses as low as 0.5 mM of magnesium produced statistically significant reduction in formation of α-synuclein positive aggregates.

primary cortical neurons [5] = assay: Ubiquitin-positive α-synuclein aggregates in primary cortical neurons (immunoprecipitation, anti-ubiquitin immunoblot); format: cell-based, rat; details: 0.3 mM iron and 50 μM dopamine, 3 days
Experimental: The inventors also examined the amount of aggregates present using an antibody to ubiquitin. As set forth previously, the accumulation of high molecular weight ubiquitin adducts correlates with the formation of α-synuclein aggregates. Primary cortical neurons were treated as described above and the aggregates were immunoprecipitated with anti-α-synuclein antibody and immunoblotted with anti-ubiquitin antibody. An increase in ubiquitination of α-synuclein upon treatment with 0.3 mM iron and 50 μM dopamine for 3 days was observed. However, treating the cells with magnesium produced a statistically significant decrease in ubiquitin immunoreactivity with doses as low as 0.5 mM (n=3, P<0.0001). Thus, magnesium inhibits formation of ubiquitin positive α-synuclein aggregates in primary neurons.

[6] = tested on: BE-M17 neuroblastoma cells over-expressing wild type α-synuclein; assay: α-Synuclein aggregation and inclusions in BE-M17 cells over-expressing wild type α-synuclein; format: cell-based, human; details: 1 mM FeCl2 plus 50 μM dopamine plus 1 mM MgCl2, 3 days
Experimental: Immunohistochemistry: For light microscopy, cells are fixed with 4% paraformaldehyde, washed, permeabilized by incubation for 30 min with 0.2% Triton-X 100, blocked with 5% dry milk/1 % goat serum/PBS, washed and then incubated overnight in 1° antibody (1:500). Development is with an ABC kit and 3′, 3′-diaminobenzidine as per manufacturer's directions (Vector, Burlingame, Calif.).
as §1
Next, whether magnesium also prevents formation of α-synuclein-positive inclusions in BE-M17 neurons stably over-expressing wildtype α-synuclein was investigated. The neurons were treated with 1 mM FeCl2 plus 50 μM dopamine plus 0 or 1 mM MgCl2 for 3 days, and then examined by immunocytochemistry using anti-α-synuclein and anti-ubiquitin antibodies.

[7] = tested on: BE-M17 cells expressing the human A53T α-synuclein cDNA; assay: Aggregate formation in BE-M17 cells expressing A53T α-synuclein; format: cell-based
[8] = tested on: primary cultures of cortical neurons; assay: Neuronal process length and inclusions in primary cultures of cortical neurons; format: cell-based, rat; details: 0.3 mM FeCl2 plus 50 μM dopamine plus 1-2 mM magnesium, 3 days
Experimental: How magnesium affected neurons from the central nervous system was also examined. Primary cultures of cortical neurons were treated with 0.3 mM FeCl2 plus 50 μM dopamine plus 0-2 mM MgCl2 for 3 days (a relatively low dose of iron was used to enable quantitation of neuronal processes). To quantify the amount of neuroprotection provided by magnesium, the percent of processes longer than 100 μm as a characteristic of cell viability was determined. […] Inclusions also formed in these neurons.

[9] = tested on: BE-M17 neuroblastoma cells; assay: Neuroprotection against FeCl2 plus dopamine, MTT assay; details: 0.8 mM MgCl2, 2 days
Experimental: MTT and LDH toxicity assay: Cells were plated in 96 well dishes at 5000 cells/well in 100 μl growth medium. For the MTT assay, viability following 48 hrs of pharmacological treatment was analyzed by adding 0.5 mg/ml MTT (MTT, 3-[4,5-dimethylthiazol-2-yl]-2,5-diphenyltetrazolium bromide) and incubating at 37° C. for 3 hrs. Lysis buffer (100 μl of 20% SDS in 50% N, N-dimethylformamide) was then added and the plates are read at 540 nm after 24 hrs. For the lactate dehydrogenase (LDH) assay, viability following 24 hrs of pharmacological treatment was analyzed using MTS reagent and the Cytox 96 kit (Promega) according to manufacturer's directions.

**Q.** How did the “effect of co-incubation on iron-induced quenching of tyrosine fluorescence” value (α-synuclein) turn out when `[Cl-].[Cl-].[Mg+2]` [magnesium, MgCl2] was run?
**A.** did not prevent iron-induced quenching

**Q.** And the “effect of A53T mutation on binding to α-synuclein” value (A53T α-synuclein [1])?
**A.** abolish the interaction

**Q.** What about the “iron-induced formation of high molecular weight aggregates of α-synuclein” value ([2]; 0-3 mM FeCl2, 100 μM (0.1 mM) MgCl2, 24 hrs, 37° C.) of the same compound?
**A.** striking reduction in formation of high molecular weight aggregates; also recorded: inhibits iron-induced aggregation

**Q.** What about the “spontaneous aggregation of α-synuclein” value ([2]; separate experiments, no iron) of the same compound?
**A.** inhibited spontaneous aggregation

**Q.** And the “magnesium required to inhibit α-synuclein aggregation in vitro” value ([2]; stated as MgSO4 clinical range)?
**A.** 0.5 to 2 mM

**Q.** What about the “iron-induced aggregation of A53T α-synuclein” value (A53T α-synuclein [3]) of the same compound?
**A.** unable to inhibit iron-induced aggregation

**Q.** What about the “lowest dose producing statistically significant reduction of α-synuclein positive aggregates” value (primary cortical neurons [4]; 1 mM FeCl2, 3 days) of the same compound?
**A.** 0.5 mM

**Q.** What about the “formation of high molecular weight α-synuclein aggregates” value (primary cortical neurons [4]; 1 mM FeCl2, magnesium 0.2 to 1.5 mM, 3 days) of the same compound?
**A.** dose-dependent reduction

**Q.** And the “lowest dose producing statistically significant decrease in ubiquitin immunoreactivity” value (primary cortical neurons [5])?
**A.** 0.5 mM

**Q.** And the “α-synuclein-positive inclusions (immunocytochemistry)” value [6]?
**A.** little accumulation of α-synuclein-positive inclusions

**Q.** And the aggregate formation [7]?
**A.** unable to inhibit aggregate formation

**Q.** And the “formation of α-synuclein-positive inclusions” value [8]?
**A.** did not exhibit any formation of α-synuclein-positive inclusions

**Q.** And the “loss of neuronal processes over 100 μm” value [8]?
**A.** 20%

**Q.** And the “increase in cell survival versus Fe2+/dopamine alone” value ([9]; control (vector) cell line)?
**A.** 1.3 fold

**Q.** And the “increase in cell survival versus Fe2+/dopamine alone” value ([9]; wildtype α-synuclein cell line)?
**A.** 2.4 fold
